Laboratory results as given in ChEMBL document CHEMBL3421527, “Synthesis and anti-mycobacterial activity of 2-chloronicotinaldehydes based novel 1H-1,2,3-triazolylbenzohydrazides” (Bioorg Med Chem Lett, 2015).
In brackets after ≈: the same amount, converted by molar mass.

Columns and labels:
[1] = tested on: Mycobacterium tuberculosis; assay: Anti-mycobacterial activity against Mycobacterium tuberculosis H37Rv ATCC 27294 assessed as inhibition of microbial growth incubated for 5 days by MABA method; format: functional; conditions: H37Rv ATCC 27294, 120 h
[2] = tested on: RAW264.7; assay: Cytotoxicity against mouse RAW264.7 cells assessed as reduction in cell viability after 72 hrs by MTT assay; format: cell-based; conditions: RAW264.7, 72 h
[3] = Selectivity index, ratio of IC50 for mouse RAW264.7 cells to MIC for Mycobacterium tuberculosis H37Rv ATCC 27294; format: toxicity; conditions: read-out: Selectivity Index
[4] = Selectivity index, ratio of IC50 for PBMC (unknown origin) to MIC for Mycobacterium tuberculosis H37Rv ATCC 27294
[5] = tested on: PBMC; assay: Cytotoxicity against PBMC (unknown origin) assessed as reduction in cell viability after 72 hrs by MTT assay; format: cell-based; conditions: Homo sapiens

Compound	MIC [1]	IC50 [2]	selectivity ratio [3]	Selectivity Index [4]	IC50 [5]
Cc1cnc(Cl)c(Cn2cc(C=O)nn2)c1	13.3 µM				
O=Cc1cn(Cc2cc(-c3ccccc3)cnc2Cl)nn1	5.2 µM				
Cc1ccc(-c2cnc(Cl)c(Cn3cc(C=O)nn3)c2)cc1	40.1 µM				
O=Cc1cn(Cc2cc(-c3ccc(F)cc3)cnc2Cl)nn1	19.8 µM				
Cc1cnc(N2CCOCC2)c(Cn2cc(C=O)nn2)c1	21.8 µM				
Cc1cnc(N2CCSCC2)c(Cn2cc(C=O)nn2)c1	10.3 µM				
O=Cc1cn(Cc2cc(-c3ccccc3)cnc2N2CCOCC2)nn1	4.5 µM				
O=Cc1cn(Cc2cc(-c3ccccc3)cnc2N2CCSCC2)nn1	8.6 µM				
Cc1ccc(-c2cnc(N3CCOCC3)c(Cn3cc(C=O)nn3)c2)cc1	4.3 µM				
Cc1ccc(-c2cnc(N3CCSCC3)c(Cn3cc(C=O)nn3)c2)cc1	33.1 µM				
Cc1cnc(Cl)c(Cn2cc(/C=N/NC(=O)c3ccc(F)cc3)nn2)c1	33.6 µM				
O=C(N/N=C/c1cn(Cc2cc(-c3ccccc3)cnc2Cl)nn1)c1ccc(F)cc1	3.6 µM	152 µg/mL (≈ 350 µM)	97	228	357 µg/mL (≈ 821 µM)
Cc1ccc(-c2cnc(Cl)c(Cn3cc(/C=N/NC(=O)c4ccc(F)cc4)nn3)c2)cc1	27.9 µM				
O=C(N/N=C/c1cn(Cc2cc(-c3ccc(F)cc3)cnc2Cl)nn1)c1ccc(F)cc1	13.8 µM				
Cc1cnc(Cl)c(Cn2cc(/C=N/NC(=O)c3ccc(C(F)(F)F)cc3)nn2)c1	3.7 µM	258 µg/mL (≈ 610 µM)	165	216	337 µg/mL (≈ 797 µM)
O=C(N/N=C/c1cn(Cc2cc(-c3ccccc3)cnc2Cl)nn1)c1ccc(C(F)(F)F)cc1	3.2 µM	313 µg/mL (≈ 646 µM)	200	180	282 µg/mL (≈ 582 µM)
Cc1ccc(-c2cnc(Cl)c(Cn3cc(/C=N/NC(=O)c4ccc(C(F)(F)F)cc4)nn3)c2)cc1	50.2 µM				

Compound	MIC [1]	IC50 [2]	selectivity ratio [3]	Selectivity Index [4]	IC50 [5]
O=C(N/N=C/c1cn(Cc2cc(-c3ccc(F)cc3)cnc2Cl)nn1)c1ccc(C(F)(F)F)cc1	12.5 µM				
Cc1cnc(N2CCOCC2)c(Cn2cc(/C=N/NC(=O)c3ccc(F)cc3)nn2)c1	59.1 µM				
Cc1cnc(N2CCSCC2)c(Cn2cc(/C=N/NC(=O)c3ccc(F)cc3)nn2)c1	28.5 µM				
O=C(N/N=C/c1cn(Cc2cc(-c3ccccc3)cnc2N2CCOCC2)nn1)c1ccc(F)cc1	12.9 µM				
O=C(N/N=C/c1cn(Cc2cc(-c3ccccc3)cnc2N2CCSCC2)nn1)c1ccc(F)cc1	6.2 µM	188 µg/mL (≈ 375 µM)	60	>128	> 400 µg/mL
Cc1ccc(-c2cnc(N3CCOCC3)c(Cn3cc(/C=N/NC(=O)c4ccc(F)cc4)nn3)c2)cc1	100 µM				
Cc1ccc(-c2cnc(N3CCSCC3)c(Cn3cc(/C=N/NC(=O)c4ccc(F)cc4)nn3)c2)cc1	97.1 µM				
Cc1cnc(N2CCOCC2)c(Cn2cc(/C=N/NC(=O)c3ccc(C(F)(F)F)cc3)nn2)c1	26.4 µM				
Cc1cnc(N2CCSCC2)c(Cn2cc(/C=N/NC(=O)c3ccc(C(F)(F)F)cc3)nn2)c1	3.2 µM	212 µg/mL (≈ 433 µM)	136	224	350 µg/mL (≈ 715 µM)
O=C(N/N=C/c1cn(Cc2cc(-c3ccccc3)cnc2N2CCOCC2)nn1)c1ccc(C(F)(F)F)cc1	23.3 µM				
O=C(N/N=C/c1cn(Cc2cc(-c3ccccc3)cnc2N2CCSCC2)nn1)c1ccc(C(F)(F)F)cc1	2.8 µM	296 µg/mL (≈ 537 µM)	189	120	188 µg/mL (≈ 341 µM)
Cc1ccc(-c2cnc(N3CCOCC3)c(Cn3cc(/C=N/NC(=O)c4ccc(C(F)(F)F)cc4)nn3)c2)cc1	91.1 µM				
Cc1ccc(-c2cnc(N3CCSCC3)c(Cn3cc(/C=N/NC(=O)c4ccc(C(F)(F)F)cc4)nn3)c2)cc1	5.4 µM	326 µg/mL (≈ 576 µM)	104	>128	> 400 µg/mL
O=C(O)c1cn(C2CC2)c2cc(N3CCNCC3)c(F)cc2c1=O [CIPROFLOXACIN]	12.6 µM				
CC[C@@H](CO)NCCN[C@@H](CC)CO [ETHAMBUTOL]	15.3 µM				
NNC(=O)c1ccncc1 [ISONIAZID]	2.6 µM	> 400 µg/mL			169 µg/mL (≈ 1230 µM)
